Reference: patent US6809065B2, “Herbicide containing substituted pyrazole derivative as active ingredient” (SDS Biotech K.K., priority 2001, dated 2004)

Key:
Chenopodium album [1] = experiment: Upland field foliage treatment (Test Example 1); type: in vivo; settings: foliage treatment 14th day after sowing, wettable powder, 1 kg active ingredient per hectare, evaluated 21st day after application
In short: (§1)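 Weeds and crops were sown in upland soil under about 1 cm cover, and a wettable powder diluted in water was sprayed on the foliage 14 days after sowing at 1 kg active ingredient per hectare. Scoring was done 21 days after application on an index scale, where higher weed scores mean stronger herbicidal effect and lower crop scores mean greater crop safety.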

Digitaria adscendens [2] = experiment: Upland field foliage treatment (Test Example 1); type: in vivo; settings: foliage treatment 14th day after sowing, wettable powder, 1 kg active ingredient per hectare, evaluated 21st day after application
In short: as §1

Setaria viridis [3] = experiment: Upland field foliage treatment (Test Example 1); type: in vivo; settings: foliage treatment 14th day after sowing, wettable powder, 1 kg active ingredient per hectare, evaluated 21st day after application
In short: as §1

Stellaria media [4] = experiment: Upland field foliage treatment (Test Example 1); type: in vivo; settings: foliage treatment 14th day after sowing, wettable powder, 1 kg active ingredient per hectare, evaluated 21st day after application
In short: as §1

soybean (Glycine max) [5] = experiment: Upland field foliage treatment (Test Example 1), crop; type: in vivo; settings: foliage treatment 14th day after sowing, 1 kg active ingredient per hectare, evaluated 21st day, lower index = higher safety
In short: as §1

[6] = test system: wheat (Triticum aestivum); experiment: as above; type: in vivo; settings: foliage treatment 14th day after sowing, 1 kg active ingredient per hectare, evaluated 21st day, lower index = higher safety
In short: as §1

Chenopodium album [7] = experiment: Upland soil treatment (Test Example 2); type: in vivo; settings: soil surface treatment next day after sowing, wettable powder, 1 kg active ingredient per hectare, evaluated 21st day after application
In short: (§2)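 Applies a soil-surface, pre-emergence spray of 1 kg active ingredient/ha (wettable powder in water) one day after sowing; weed control and crop injury are rated on an index scale three weeks later.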

Digitaria adscendens [8] = experiment: Upland soil treatment (Test Example 2); type: in vivo; settings: soil surface treatment next day after sowing, wettable powder, 1 kg active ingredient per hectare, evaluated 21st day after application
In short: as §2

Setaria viridis [9] = experiment: Upland soil treatment (Test Example 2); type: in vivo; settings: soil surface treatment next day after sowing, wettable powder, 1 kg active ingredient per hectare, evaluated 21st day after application
In short: as §2

Stellaria media [10] = experiment: Upland soil treatment (Test Example 2); type: in vivo; settings: soil surface treatment next day after sowing, wettable powder, 1 kg active ingredient per hectare, evaluated 21st day after application
In short: as §2

soybean (Glycine max) [11] = experiment: Upland soil treatment (Test Example 2), crop; type: in vivo; settings: soil surface treatment next day after sowing, 1 kg active ingredient per hectare, evaluated 21st day, lower index = higher safety
In short: as §2

[12] = test system: wheat (Triticum aestivum); experiment: Upland soil treatment (Test Example 2), crop; type: in vivo; settings: soil surface treatment next day after sowing, 1 kg active ingredient per hectare, evaluated 21st day, lower index = higher safety
In short: as §2

Echinochloa spp. = experiment: Paddy field treatment (Test Example 3); type: in vivo, Echinochloa crusgalli; settings: paddy pot, submerged 4 cm, dropped on water surface 10th day after transplantation, 1 kg active ingredient per hectare, evaluated 21st day
In short: (§3)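 Weeds sown in puddled paddy soil under 4 cm water, with two-leaf Koshihikari rice transplanted at 3 cm depth. On day 10 after transplanting, wettable powder applied to the water surface at 1 kg active ingredient per hectare. Herbicidal effect and crop safety scored on an index 21 days later.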

Ammannia multiflora = experiment: Paddy field treatment (Test Example 3); type: in vivo; settings: paddy pot, submerged 4 cm, dropped on water surface 10th day after transplantation, 1 kg active ingredient per hectare, evaluated 21st day
In short: as §3

Monochoria vaginalis = experiment: Paddy field treatment (Test Example 3); type: in vivo; settings: paddy pot, submerged 4 cm, dropped on water surface 10th day after transplantation, 1 kg active ingredient per hectare, evaluated 21st day
In short: as §3

Scirpus juncoides = experiment: Paddy field treatment (Test Example 3); type: in vivo; settings: paddy pot, submerged 4 cm, dropped on water surface 10th day after transplantation, 1 kg active ingredient per hectare, evaluated 21st day
In short: as §3

[13] = test system: rice (Oryza sative, variety: Koshihikari); experiment: Paddy field treatment (Test Example 3), crop; type: in vivo, Oryza sativa; settings: transplanted rice two-leaf period, water surface treatment 10th day after transplantation, 1 kg active ingredient per hectare, evaluated 21st day, lower index = higher safety
In short: as §3

Row | SMILES | Herbicidal activity Chenopodium album (Chenopodium album [1]) | Herbicidal activity Digitaria adscendens (Digitaria adscendens [2]) | Herbicidal activity Setaria viridis (Setaria viridis [3]) | Herbicidal activity Stellaria media (Stellaria media [4]) | Herbicidal activity Glycine max (soybean (Glycine max) [5]) | Herbicidal activity Triticum aestivum [6] | Herbicidal activity Chenopodium album (Chenopodium album [7]) | Herbicidal activity Digitaria adscendens (Digitaria adscendens [8]) | Herbicidal activity Setaria viridis (Setaria viridis [9]) | Herbicidal activity Stellaria media (Stellaria media [10]) | Herbicidal activity Glycine max (soybean (Glycine max) [11]) | Herbicidal activity Triticum aestivum [12] | Herbicidal activity Echinochloa spp. (Echinochloa spp.) | Herbicidal activity Ammannia multiflora (Ammannia multiflora) | Herbicidal activity Monochoria vaginalis (Monochoria vaginalis) | Herbicidal activity Scirpus juncoides (Scirpus juncoides) | Herbicidal activity Oryza sativa [13]
1 | COC=C(Cn1nc(-c2ccccc2)c(C)c1C)C(=O)OC [Compound 33] | 5 (herbicidal effect of not less than 90% by weight) | 5 (herbicidal effect of not less than 90% by weight) | 4 (herbicidal effect of not less than 70% by weight and less than 90% by weight) | 5 (herbicidal effect of not less than 90% by weight) | 0 (herbicidal effect of not less than 0% by weight and less than 10% by weight) | 0 (herbicidal effect of not less than 0% by weight and less than 10% by weight) | 4 (herbicidal effect of not less than 70% by weight and less than 90% by weight) | 4 (herbicidal effect of not less than 70% by weight and less than 90% by weight) | 4 (herbicidal effect of not less than 70% by weight and less than 90% by weight) | 4 (herbicidal effect of not less than 70% by weight and less than 90% by weight) | 0 (herbicidal effect of not less than 0% by weight and less than 10% by weight) | 0 (herbicidal effect of not less than 0% by weight and less than 10% by weight) | 5 (herbicidal effect of not less than 90% by weight) | 5 (herbicidal effect of not less than 90% by weight) | 5 (herbicidal effect of not less than 90% by weight) | 5 (herbicidal effect of not less than 90% by weight) | 1 (herbicidal effect of not less than 10% by weight and less than 30% by weight)
2 | COC=C(Cn1nc(-c2cccc(Cl)c2)c(C)c1C)C(=O)OC [Compound 34] | 5 (herbicidal effect of not less than 90% by weight) | 5 (herbicidal effect of not less than 90% by weight) | 4 (herbicidal effect of not less than 70% by weight and less than 90% by weight) | 4 (herbicidal effect of not less than 70% by weight and less than 90% by weight) | 1 (herbicidal effect of not less than 10% by weight and less than 30% by weight) | 1 (herbicidal effect of not less than 10% by weight and less than 30% by weight) | 4 (herbicidal effect of not less than 70% by weight and less than 90% by weight) | 4 (herbicidal effect of not less than 70% by weight and less than 90% by weight) | 4 (herbicidal effect of not less than 70% by weight and less than 90% by weight) | 4 (herbicidal effect of not less than 70% by weight and less than 90% by weight) | 0 (herbicidal effect of not less than 0% by weight and less than 10% by weight) | 0 (herbicidal effect of not less than 0% by weight and less than 10% by weight) | 3 (herbicidal effect of not less than 50% by weight and less than 70% by weight) | 3 (herbicidal effect of not less than 50% by weight and less than 70% by weight) | 5 (herbicidal effect of not less than 90% by weight) | 3 (herbicidal effect of not less than 50% by weight and less than 70% by weight) | 0 (herbicidal effect of not less than 0% by weight and less than 10% by weight)
3 | COC=C(Cn1nc(-c2ccc(Cl)cc2)c(C)c1C)C(=O)OC [Compound 35] | 4 (herbicidal effect of not less than 70% by weight and less than 90% by weight) | 4 (herbicidal effect of not less than 70% by weight and less than 90% by weight) | 4 (herbicidal effect of not less than 70% by weight and less than 90% by weight) | 4 (herbicidal effect of not less than 70% by weight and less than 90% by weight) | 0 (herbicidal effect of not less than 0% by weight and less than 10% by weight) | 0 (herbicidal effect of not less than 0% by weight and less than 10% by weight) | 4 (herbicidal effect of not less than 70% by weight and less than 90% by weight) | 4 (herbicidal effect of not less than 70% by weight and less than 90% by weight) | 4 (herbicidal effect of not less than 70% by weight and less than 90% by weight) | 4 (herbicidal effect of not less than 70% by weight and less than 90% by weight) | 0 (herbicidal effect of not less than 0% by weight and less than 10% by weight) | 0 (herbicidal effect of not less than 0% by weight and less than 10% by weight) | 3 (herbicidal effect of not less than 50% by weight and less than 70% by weight) | 4 (herbicidal effect of not less than 70% by weight and less than 90% by weight) | 4 (herbicidal effect of not less than 70% by weight and less than 90% by weight) | 3 (herbicidal effect of not less than 50% by weight and less than 70% by weight) | 0 (herbicidal effect of not less than 0% by weight and less than 10% by weight)
4 | CCc1cc(-c2ccccc2)nn1CC(=COC)C(=O)OC [Compound 36] | 5 (herbicidal effect of not less than 90% by weight) | 4 (herbicidal effect of not less than 70% by weight and less than 90% by weight) | 5 (herbicidal effect of not less than 90% by weight) | 5 (herbicidal effect of not less than 90% by weight) | 1 (herbicidal effect of not less than 10% by weight and less than 30% by weight) | 1 (herbicidal effect of not less than 10% by weight and less than 30% by weight) | 4 (herbicidal effect of not less than 70% by weight and less than 90% by weight) | 4 (herbicidal effect of not less than 70% by weight and less than 90% by weight) | 4 (herbicidal effect of not less than 70% by weight and less than 90% by weight) | 4 (herbicidal effect of not less than 70% by weight and less than 90% by weight) | 0 (herbicidal effect of not less than 0% by weight and less than 10% by weight) | 0 (herbicidal effect of not less than 0% by weight and less than 10% by weight) | 3 (herbicidal effect of not less than 50% by weight and less than 70% by weight) | 3 (herbicidal effect of not less than 50% by weight and less than 70% by weight) | 3 (herbicidal effect of not less than 50% by weight and less than 70% by weight) | 3 (herbicidal effect of not less than 50% by weight and less than 70% by weight) | 0 (herbicidal effect of not less than 0% by weight and less than 10% by weight)
